Results: US11337427B2, “Antimicrobial agents and their use in therapy” (priority 2013, dated 2022)

Tests used:
[1] = system: E. coli BL21 (ripl); experiment: Overexpression of APIM peptides in E. coli (growth, OD); format: cell-based; conditions: induced with 1 mM IPTG; no cell-penetrating peptide
Text: In order to verify further that the anti-microbial effect of the APIM peptides arises from the APIM sequence, peptides containing only the APIM sequence (i.e. without a cell-penetrating peptide) were over-expressed in E. coli using the expression vector pET28. The APIM peptide was expressed alone or as part of a fusion protein with EYFP. Expression of EYFP alone was used as a control.
The expression vectors containing the respective peptides were transfected into the bacterial strain E. coli BL21 (ripl). Single colonies, 4-6 of each strain, were inoculated in […] LB media (+Km/Clm) in 96 wells plates, and incubated at 37° C. Overnight cultures were diluted 1:100 and grown for 1 h before induction with 1 mM IPTG (initiating peptide expression). OD was measured every hour.

[2] = system: Saccharomyces cerevisiae wild type BY4743; experiment: Yeast growth study in microplates (OD 600 nm); conditions: for concentration required to retard growth of the yeast cells: agent alone, wild-type yeast
Experimental: Growth studies on wild-type (wt) yeast and the Hog1 mutant were performed. […] The OD (600 nm) in each well was read every 20 minutes using an integrated Beckman Coulter Paradigm microplate reader. The growth of the yeast strains in the microplates was monitored for approximately 25 hours.

[3] = system: gram positive bacteria (Enterococcus faecium CCUG 37832, Enterococcus faecium CTC 492, Micrococcus luteus ATCC 9341); experiment: Robotic MIC assay, gram positive bacteria; conditions: FIG. 5
[4] = system: gram negative bacteria (Pseudomonas aeruginosa ATCC 15692, Acinetobacter baumanni ATCC 19606, Escherichia coli ATCC 25922, Pseudomonas aeruginosa TO-5A); experiment: Robotic MIC assay, gram negative bacteria; conditions: FIG. 4
[5] = system: Staphylococcus aureus NCTC 6571; experiment: MIC assay; conditions: starting concentration 150 μg/ml
[6] = system: Staphylococcus aureus MRSA 1096; experiment: MIC assay; conditions: starting concentration 150 μg/ml
[7] = system: E. coli NCIMB 12210; conditions: E. coli NCIMB 12210, FIG. 7
[8] = system: Yeast cells (Saccharomyces cerevisiae); experiment: Cellular import of FAM-labelled ATX-101 (laser scanning microscopy); format: cell-based; conditions: FAM-labelled peptide, 1-2 minutes incubation
Experimental: Yeast cells (Saccharomyces cerevisiae) were grown in LB media. A fluorescently labelled APIM peptide (ATX-101-FAM) was added to the media and incubated for 1-2 minutes before an aliquot of cells was removed and analyzed on a Zeiss LSM 510 Meta laser scanning microscope equipped with a Plan-Apochromate 63×/1.4 oil immersion objective.

Compound: RWLVK (APIM variant)
- effect of overexpression on bacterial growth [1]: inhibits bacterial growth

Compound: N.N.[Cl][Pt][Cl] [cisplatin]
- concentration required to retard growth of the yeast cells [2]: 500 µM
- effect on growth of the yeast cells ([2]; cisplatin 125 μM alone): not sufficient to retard growth
- effect on growth of the yeast cells ([2]; cisplatin 2000 μM alone): growth is not completely inhibited

Compound: Ac-MDRWLVKWKKKRKIRRRRRRRRRRR [ATX-101]
- concentration from which growth is inhibited [3]: about 1 μM
- concentration from which growth is inhibited [4]: about 1 μM
- Factor of inhibition [5]: 1
- Factor of inhibition [6]: 0.0625
- reduction of the MIC for novobiocin [7]: 16 fold
- cellular import [8]: imported into yeast cells
- concentration required to retard growth of the yeast cells [2]: ≥ 20 µM

Compound: RFSLK (APIM variant) [APIM variant over-expressed in E. coli]
- effect of overexpression on bacterial growth [1]: particularly effective

Compound: RWLTK (APIM variant) [APIM variant over-expressed in E. coli]
- effect of overexpression on bacterial growth [1]: particularly effective

Compound: RWLVP (APIM variant) [APIM variant over-expressed in E. coli]
- effect of overexpression on bacterial growth [1]: particularly effective
